According to article PMC5691139, “Structural and functional studies of SAV0551 from Staphylococcus aureus as a chaperone and glyoxalase III” (Bioscience Reports, 2017):

Tests used:
SAV0551 [1] = target: T1, SAV0551 (Staphylococcus aureus, UniProt P64312); assay: 1D 1H NMR; type: biochemical; conditions: 60 mM methylglyoxal, 50 µM enzyme, 20 mM HEPES pH 7.5, 50 mM KCl, 2 mM DTT, 37°C
T1 construct: gene hchA; monomer ~32 kDa, dimer ~64 kDa
T1 sequence (P64312 1-292): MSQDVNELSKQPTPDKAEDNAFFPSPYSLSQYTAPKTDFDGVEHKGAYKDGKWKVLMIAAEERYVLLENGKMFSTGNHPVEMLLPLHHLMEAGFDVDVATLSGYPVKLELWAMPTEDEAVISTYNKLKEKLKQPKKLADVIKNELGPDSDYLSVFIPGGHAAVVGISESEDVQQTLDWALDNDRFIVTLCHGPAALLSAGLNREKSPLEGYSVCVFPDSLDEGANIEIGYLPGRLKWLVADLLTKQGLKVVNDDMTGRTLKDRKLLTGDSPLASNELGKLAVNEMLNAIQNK

SAV0551 [2] = target: T1, SAV0551; assay: 1D 1H NMR and DNPH absorbance ([…] nm) of remaining methylglyoxal; type: biochemical; conditions: no cofactor; 20 mM HEPES pH 7.5, 50 mM KCl, 2 mM DTT, 37°C; 60 mM (NMR) or 6 mM substrate; 50 or 10 µM enzyme
SAV0551 [3] = target: T1, SAV0551; assay: X-ray crystal structure of the complex, […] Å; type: binding; conditions: co-crystal with 50 mM glyoxylate, 30% PEG3350, 100 mM BisTris pH 6.5, 293 K; active site at Cys190; additional glyoxylate in aspartate-rich cleft between non-dimer chains
[4] = target: the molecule itself; assay: SEC; size-exclusion chromatography in solution; conditions not told for this result (the purification used Superdex 75 10/300 GL in 50 mM Tris pH 7.5, 0.15 M NaCl)

Molecule: C[C@@H](O)C(=O)O [D-lactate]
- 1D 1H NMR (SAV0551 [1]): new peaks that correspond to the D-lactate produced by SAV0551

Molecule: CC(=O)C=O [methylglyoxal]
- 1D 1H NMR and DNPH absorbance (550 nm) of remaining methylglyoxal (SAV0551 [2]): methylglyoxal can be used as a substrate for SAV0551 to produce D-lactate

Molecule: O=CC(=O)O [glyoxylate]
- X-ray crystal structure of the complex, 3.01 Å (SAV0551 [3]): 5XR3 for SAV0551 with glyoxylate

B1: SAV0551 from Staphylococcus aureus Mu50 (natural protein, UniProt P64312 1-292, looked up)
chain: T1 sequence (P64312 1-292)
notes: SAV0551, Hsp-type DJ-1/ThiJ/PfpI superfamily protein (Hsp31 homologue, glyoxalase III) of Staphylococcus aureus Mu50 (ATCC 700699); predicted ORF amplified from genomic DNA into pET-21a(+) NdeI/XhoI; monomer ~32 kDa; also called wild-type SAV0551; native SAV0551; source: E. coli BL21(DE3), purified (Ni-NTA, Superdex 75)
- stoichiometry N [4]: 2
